According to ChEMBL document CHEMBL3045520, “Comparative three-dimensional quantitative structure-activity relationship study of safeners and herbicides” (J Agric Food Chem, 2000):

Assay: Binding affinity to SafBP receptor in Zea mays (maize) seedlings by [3H]Saf(R-29148) binding assay

| Structure (SMILES) | IC50 |
| --- | --- |
| CC1(C(Cl)Cl)OCCO1 | 4400 nM |
| CC1CN(C(=O)C(Cl)Cl)C(C)(C)O1 (centres undefined) | 120 nM |
| O=C(C(Cl)Cl)N1CCOC12CCCCC2 | 6000 nM |
| C=CCN(CC=C)C(=O)C(Cl)Cl [DICHLORMID] | 10 nM |
